This note sets out measurements from PubChem BioAssay AID248 (DTP/NCI, 2004).

This experiment relates to L1210 leukemia ip in BDF1 mice, survival T/C. In words: NCI In Vivo Anticancer Drug Screen. Data for tumor model L1210 Leukemia (intraperitoneal) in B6D2F1 (BDF1) mice. The note with it: endpoint: mean survival time, higher = longer survival. An outline of the steps:
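Ratio derived from survival: compound-dosed mice over vehicle-dosed mice, all bearing a transplantable tumor.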

[1] abbreviates: dose: 100.0 mg/kg/injection, schedule: Q01DX001 (ip), vehicle: saline.
The mark [2] stands for this setting: dose: 100.0 mg/kg/injection, schedule: Q04DX003 (ip), vehicle: Klucel (hydroxypropylcellulose) (HPC).
The mark [3] stands for this setting: dose: 200.0 mg/kg/injection, schedule: Q01DX001 (ip), vehicle: saline.
Setting [4] is: dose: 400.0 mg/kg/injection, schedule: Q01DX001 (ip), vehicle: saline.
[5] abbreviates: dose: 100.0 mg/kg/injection, schedule: Q01DX009 (ip), vehicle: Klucel (hydroxypropylcellulose) (HPC).
Setting [6] is: dose: 200.0 mg/kg/injection, schedule: Q01DX009 (ip), vehicle: Klucel (hydroxypropylcellulose) (HPC).
Setting [7] is: dose: 400.0 mg/kg/injection, schedule: Q01DX009 (ip), vehicle: Klucel (hydroxypropylcellulose) (HPC).
Setting [8] is: dose: 100.0 mg/kg/injection, schedule: Q04DX003 (ip), vehicle: saline with Tween-80.
The mark [9] stands for this setting: dose: 200.0 mg/kg/injection, schedule: Q04DX003 (ip), vehicle: saline with Tween-80.
Setting [10] is: dose: 400.0 mg/kg/injection, schedule: Q04DX003 (ip), vehicle: saline with Tween-80.

“And” between values parts separate entries of the source, which are not always exact repeats. Identical values can stand only once. Inconclusive results and toxic doses are left out.

On to `OC1CCC(O)C2CCCCC12` (centres undefined), for which the T/C runs as follows: under setting [1], 101 % of control; under setting [2], 112 % of control; under setting [3], 95 % of control; (dose: 200.0 mg/kg/injection, schedule: Q04DX003 (ip), vehicle: Klucel (hydroxypropylcellulose) (HPC)) 91 % of control; under setting [4], 95 % of control; (dose: 400.0 mg/kg/injection, schedule: Q04DX003 (ip), vehicle: Klucel (hydroxypropylcellulose) (HPC)) 104 % of control.
Take `CCOC(=O)c1ccc(NC(=O)Nc2ccc(SC)cc2)cc1`: the T/C under setting [5] is 98 % of control, the T/C under setting [6] is 95 % of control and the T/C under setting [7] was 104 % of control.
On to `[Cl][Hg][S]C1CCCC1`, for which the T/C by setting is: (dose: 5.0 mg/kg/injection, schedule: Q01DX001 (ip), vehicle: saline) 106 % of control; (dose: 10.0 mg/kg/injection, schedule: Q01DX001 (ip), vehicle: saline) 101 % of control; (dose: 20.0 mg/kg/injection, schedule: Q01DX001 (ip), vehicle: saline) 101 % of control.
Consider `COc1ccc(OC)c(CCCl)c1`, for which the T/C was 91 % of control (dose: 100.0 mg/kg/injection, schedule: Q01DX001 (ip), vehicle: acetone); 93 % of control (dose: 200.0 mg/kg/injection, schedule: Q01DX001 (ip), vehicle: acetone); 88 % of control (dose: 400.0 mg/kg/injection, schedule: Q01DX001 (ip), vehicle: acetone).
Consider `CCOC(=O)C1(C(=O)OCC)C(C)CC(O)N1C(=O)c1cc2c(cc1[N+](=O)[O-])OCO2` (centres undefined), for which the T/C is, setting by setting: (dose: 25.0 mg/kg/injection, schedule: Q04DX003 (ip), vehicle: Klucel (hydroxypropylcellulose) (HPC)) 94 % of control; (dose: 50.0 mg/kg/injection, schedule: Q04DX003 (ip), vehicle: Klucel (hydroxypropylcellulose) (HPC)) 94 % of control; under setting [2], 89 % of control.
As for `O=C(O)C1=CCC=CC1`, the T/C by setting is: under setting [8], 98 % of control; under setting [9], 109 % of control; under setting [10], 106 % of control.
In the case of `CCOC(=O)c1ccc(NC(=S)NC(=O)c2cccc3ccccc23)cc1`, the T/C (dose: 100.0 mg/kg/injection, schedule: Q04DX002 (ip), vehicle: other) is 91 % of control and 92 % of control; the T/C (dose: 200.0 mg/kg/injection, schedule: Q04DX002 (ip), vehicle: other) was 97 % of control and 91 % of control; the T/C (dose: 400.0 mg/kg/injection, schedule: Q04DX002 (ip), vehicle: other) was 102 % of control and 91 % of control.
Turning to `Cc1cc(C)cc(N=Cc2ccccc2)c1`, the T/C is, setting by setting: (dose: 50.0 mg/kg/injection, schedule: Q01DX001 (ip), vehicle: saline with Tween-80) 98 % of control; (dose: 100.0 mg/kg/injection, schedule: Q01DX001 (ip), vehicle: saline with Tween-80) 98 % of control; (dose: 200.0 mg/kg/injection, schedule: Q01DX001 (ip), vehicle: saline with Tween-80) 95 % of control.
In the case of `Clc1ccccc1N1CCN(c2c3c(nc4ccccc24)CCCCC3)CC1`, the T/C was 97 % of control under setting [1], 103 % of control under setting [3] and 97 % of control under setting [4].
As to `CCCC(C(=O)OCC)C1=NC(C)(C)CC(C)O1` (centres undefined), the T/C runs as follows: (dose: 100.0 mg/kg/injection, schedule: Q01DX009 (ip), vehicle: alcohol) 102 % of control; (dose: 200.0 mg/kg/injection, schedule: Q01DX009 (ip), vehicle: alcohol) 105 % of control; (dose: 400.0 mg/kg/injection, schedule: Q01DX009 (ip), vehicle: alcohol) 105 % of control.
Turning to `O=C(O)C1CC1(Br)Br` (centres undefined), the T/C (dose: 100.0 mg/kg/injection, schedule: Q04DX003 (ip), vehicle: acetone) is 87 % of control.
In the case of `O=C1OC(=O)C2C3CC(C4OC34)C12` (centres undefined), the T/C reads like this: under setting [8], 95 % of control; under setting [9], 100 % of control; under setting [10], 94 % of control.
As to `CCN(CC)c1cc(C(C)(C)C)cc(C(C)(C)C)c1`, the T/C (dose: 100.0 mg/kg/injection, schedule: Q04DX003 (ip), vehicle: saline sonified) was 114 % of control; the T/C (dose: 200.0 mg/kg/injection, schedule: Q04DX003 (ip), vehicle: saline sonified) was 94 % of control; the T/C (dose: 400.0 mg/kg/injection, schedule: Q04DX003 (ip), vehicle: saline sonified) was 101 % of control.
For the compound `Cc1cccc(NC(=S)NCc2ccco2)c1`, the T/C is 96 % of control under setting [5], 93 % of control under setting [6] and 91 % of control under setting [7].
As for `NC(=O)O/N=C/c1ccccn1`, the T/C was 105 % of control under setting [8], 103 % of control under setting [9] and 106 % of control under setting [10].
Turning to `CC(CCc1ccc(OC(=O)c2ccccc2)cc1)OC(=O)c1ccccc1` (centres undefined), the T/C was 101 % of control (dose: 50.0 mg/kg/injection, schedule: Q01DX001 (ip), vehicle: saline); 95 % of control under setting [1]; 98 % of control under setting [3]; 95 % of control under setting [4].
Regarding `CC1CC/C(=N\N(C)C)c2ccccc21` (centres undefined), the T/C (dose: 100.0 mg/kg/injection, schedule: Q01DX009 (ip), vehicle: saline with Tween-80) is 120 % of control; the T/C under setting [8] is 117 % of control; the T/C under setting [9] is 103 % of control; the T/C under setting [10] was 105 % of control.
As to `CC1(C)N=C(N)N=C(N)N1c1cccc(Br)c1`, the T/C (dose: 2.5 mg/kg/injection, schedule: Q01DX Z (ip), vehicle: saline) was 121 % of control; the T/C (dose: 11.0 mg/kg/injection, schedule: Q01DX Z (ip), vehicle: carboxymethylcellulose (CMC)) was 117 % of control; the T/C (dose: 16.0 mg/kg/injection, schedule: Q01DX Z (ip), vehicle: saline) is 162 % of control; the T/C (dose: 25.0 mg/kg/injection, schedule: Q01DX Z (ip), vehicle: saline) was 168 % of control; the T/C (dose: 37.0 mg/kg/injection, schedule: Q01DX Z (ip), vehicle: carboxymethylcellulose (CMC)) was 105 % of control; the T/C (dose: 50.0 mg/kg/injection, schedule: Q01DX Z (ip), vehicle: methylcellulose (MC)) was 97 % of control. In addition, the T/C is 107 % of control (dose: 60.0 mg/kg/injection, schedule: Q01DX Z (ip), vehicle: carboxymethylcellulose (CMC)); 103 % of control (dose: 75.0 mg/kg/injection, schedule: Q01DX001 (ip), vehicle: other); 90 % of control (dose: 90.0 mg/kg/injection, schedule: Q01DX Z (ip), vehicle: carboxymethylcellulose (CMC)); 108 % of control (dose: 150.0 mg/kg/injection, schedule: Q01DX001 (ip), vehicle: other).
As to `N#Cc1ccccc1C(Cl)(Cl)Cl`, the T/C is, setting by setting: (dose: 100.0 mg/kg/injection, schedule: Q04DX002 (ip), vehicle: Klucel (hydroxypropylcellulose) (HPC)) 100 % of control; (dose: 200.0 mg/kg/injection, schedule: Q04DX002 (ip), vehicle: Klucel (hydroxypropylcellulose) (HPC)) 106 % of control; (dose: 400.0 mg/kg/injection, schedule: Q04DX002 (ip), vehicle: Klucel (hydroxypropylcellulose) (HPC)) 100 % of control.
`CCCC1(c2ccsc2)NC(=O)NC1=O` (centres undefined): the T/C by setting is: (dose: 100.0 mg/kg/injection, schedule: Q01DX001 (ip), vehicle: carboxymethylcellulose (CMC)) 98 % of control; (dose: 200.0 mg/kg/injection, schedule: Q01DX001 (ip), vehicle: carboxymethylcellulose (CMC)) 98 % of control; (dose: 400.0 mg/kg/injection, schedule: Q01DX001 (ip), vehicle: carboxymethylcellulose (CMC)) 90 % of control.
`COc1ccc(/C=C2\CN(CCCC(=O)O)C(=O)C2=O)cc1`: the T/C by setting is: under setting [1], 103 % of control; (dose: 100.0 mg/kg/injection, schedule: Q04DX003 (ip), vehicle: saline) 100 % of control; under setting [3], 98 % of control; (dose: 200.0 mg/kg/injection, schedule: Q04DX003 (ip), vehicle: saline) 100 % of control; under setting [4], 100 % of control; (dose: 400.0 mg/kg/injection, schedule: Q04DX003 (ip), vehicle: saline) 100 % of control.
Regarding `Nc1cc(F)c([N+](=O)[O-])cc1[N+](=O)[O-]`, the T/C was 89 % of control (dose: 8.0 mg/kg/injection, schedule: Q01DX015 (ip), vehicle: carboxymethylcellulose (CMC)); 91 % of control (dose: 16.0 mg/kg/injection, schedule: Q01DX015 (ip), vehicle: carboxymethylcellulose (CMC)); 102 % of control (dose: 32.0 mg/kg/injection, schedule: Q01DX015 (ip), vehicle: carboxymethylcellulose (CMC)).
